Assay results: EP4111863A1, “PHOSPHORUS USE EFFICIENCY ENHANCERS AS PLANT GROWTH PROMOTORS” (EuroChem Antwerpen, priority 2021, dated 2023)

These compounds were tested on SPX1 (assay: Chemical activity assessment: SPX1 phosphate starvation biomarker, pSPX1::GUS reporter line, GUS stained area). Conditions: Table 3; 50 µM compound, low phosphate modMS liquid medium, 7 days after germination; low phosphate control average of the same plate.
Format: in vivo, Arabidopsis thaliana
Description: All Arabidopsis plant experiments were performed using the Arabidopsis thaliana Columbia-0 background. The Arabidopsis pSPX1::GUS line is described in the […] 2008, 54: 965-975. For rice, the cultivar Nipponbare was used. For maize, the cultivars DKC 2931 and B104 were used for regular pot experiments and sand-based pot experiments, respectively. For soybean, the cultivar Primus was used. […] The medium was solidified due to the addition of 0,6% Gelrite, unless stated otherwise. In case of vertical plates (root length and root hair measurements), the medium was supplied with 0.5% of sucrose and 1 µM (low phosphate, 1 µM KH2PO4, 9.9 mM KCI), 10 µM (low phosphate 10 µM KH2PO4, 9.9 mM KCI) or 1.25 mM KH2PO4 (high phosphate). Arabidopsis seeds were stratified for 2 days at 4 °C before germination. Seedlings were germinated in climate-controlled growth chambers at 22 °C under continuous light (100 µmol m^-2 s^-1). Husked rice seeds were germinated on wetted Whatman paper for 2 days at 37 °C and then transferred to Sterivent boxes or square Petri dishes with solid medium. Maize and soybean seeds were wetted 24 hours at room temperature prior to sowing in pots.
For the chemical activity assessment 3 to 8 seeds per well of Arabidopsis pSPX1::GUS line were sown in 96-well plates containing 150 µl of low phosphate modMS liquid medium containing 1% of sucrose. Compounds were added in 50 µM concentration, starting from a 5 mM stock of compounds solved in DMSO. Different chemical substances were separately added to different wells. Per plate, 16 control wells were used, 8 containing only the low phosphate medium and 1% DMSO, and 8 containing high phosphate medium and 1% DMSO. 7 days after germination, plates were scanned using a flatbed scanner (EPSON Expression 11000XL) and analyzed for leaf size. After scanning, the growth medium was replaced by GUS staining solution (see Plant Mol. Biol. Rep. 1994, 12: 37-42 for details) and incubated for 1.5 hours at 37 °C. The plates were scanned a second time and analyzed for GUS signal area. Measurements of both leaf area and GUS signal area were conducted by filtering out and measure the green and blue signal, respectively using ImageJ software. If the green leaf area was 50% or less than the control, samples were omitted. Additionally, all results were visually screened for leaf size and GUS signal.

Structure (SMILES)	GUS (SPX1) stained area normalized to the number of seeds (pixels)
CCc1cc2c(=O)n(CC(=O)N3CCOC(C)C3)cnc2s1 (stereo not shown)	0
CC1CN(C(=O)Cn2nc(-c3cccs3)oc2=O)CCO1 (stereo not shown)	0
CCC1CN(C(=O)c2[nH]nc(C)c2Br)CCO1 (stereo not shown)	0
CC1(C)CN(c2snc(Cl)c2C#N)CCO1	0
FC(F)(F)c1ccnc(N2CCOC(c3nccs3)C2)n1 (stereo not shown)	0
CC1CN(C(=O)CCc2nc(-c3ccsc3)no2)C(C)CO1 (stereo not shown)	1
C=CCn1c(SCc2cccc(S(=O)(=O)N3CCOCC3)c2)nc2ccccc21	1
c1cc2c(cc1C1CCCN1c1nc(CN3CCOCC3)nc3sc4c(c13)CCC4)OCCO2 (stereo not shown)	1
COC(=O)C1CN(c2ccc(C(F)(F)F)cn2)C[C@@H](C)O1 (stereo partly shown)	1
c1ccc2sc(SN3CCOCC3)nc2c1	1
CC(C)CCNC(=O)c1cc(S(=O)(=O)N2CCOCC2)cn1C	1
CC1CN(Cc2nc(-c3ccc(Br)s3)no2)CCO1 (stereo not shown)	1
C[C@@H](CO)NS(=O)(=O)c1ccc(S(=O)(=O)N2CCOCC2)cc1	1
CC1CN(S(=O)(=O)CCNc2nc(-c3ccncc3)nc3ccccc23)CC(C)O1 (stereo not shown)	1
O=C(NCC(c1ccc(F)cc1)N1CCOCC1)C12CC3CC(CC(C3)C1)C2 (stereo not shown)	1
O=C(c1csc(-c2cccs2)n1)N1CCOC2CCCCC21 (stereo not shown)	2
CC1CN(Cc2csc(NC(=O)c3ccco3)n2)CC(C)O1 (stereo not shown)	2
CCCn1nc(C(=O)N2CC(C)OCC2C)ccc1=O (stereo not shown)	2
c1coc(CNc2nc(N3CCOCC3)nc3ccccc23)c1	2
NC(=O)C1COCCN1c1cnc2cc(Cl)c(Cl)cc2n1 (stereo not shown)	3
O=C1Nc2ccccc2SC1Nc1ccc(F)c(S(=O)(=O)N2CCOCC2)c1 (stereo not shown)	3
O=C(c1cccs1)C(C(c1ccc(Cl)cc1)N1CCOCC1)N1CCOCC1 (stereo not shown)	3
CN(Cc1ccccc1N1CCOCC1)C(=O)C12CC3CC(CC(C3)C1)C2	3
O=S(=O)(c1ccc(OCCN(C2CC2)C2CCCc3ccccc32)cc1)N1CCOCC1 (stereo not shown)	3
COc1ccc(-c2[nH]c3ccccc3c2CCC(=O)N2CCOCC2)cc1	3
O=C(COc1cc(Cl)ccc1Cl)NCc1ccc(N2CCOCC2)nc1	3

Structure (SMILES)	GUS (SPX1) stained area normalized to the number of seeds (pixels)
Fc1ccc(C2CN(Cc3nnsc3Cl)CCO2)cc1 (stereo not shown)	3
CCC1CN(Cn2nc3ccccn3c2=S)CCO1 (stereo not shown)	3
Cc1ccc(CS(=O)(=O)c2nnc(N3CCOCC3)n2C)cc1	4
CC1CN(C(=O)c2c(Cl)nc3ccccn23)C(C)CO1 (stereo not shown)	4
C=CCCN1CC(C(=O)OC)O[C@H](C)C1 (stereo partly shown)	5
O=C(CSc1ccc(F)cc1)Nc1ccc(Cl)c(S(=O)(=O)N2CCOCC2)c1	5
CC(C)(C)c1n[nH]c(C2CN(C(=O)c3ccc[nH]3)CCO2)n1 (stereo not shown)	5
O=C(C1=C(O)C(=O)N(CCN2CCOCC2)C1c1ccccc1)c1cccs1 (stereo not shown)	5
CCc1cc(N2CC(C)OCC2c2ccccc2)nc(-c2ccccn2)n1 (stereo not shown)	5
Cc1csc(C2CN(Cc3ncc(C(C)(C)C)o3)CCO2)n1 (stereo not shown)	5
CC(C)(C)CC(C)(C)NCc1cnc(N2CCOCC2)nc1	5
CN1CCOC(C(=O)NC(c2c(F)cccc2F)C(F)(F)F)C1 (stereo not shown)	5
CC1(C)CN(C(=O)c2csc(-c3cccs3)n2)CCO1	6
c1cc2c(cc1Sc1nc(CN3CCOCC3)nc3sc4c(c13)CCC4)OCCO2	6
O=S(=O)(c1ccc(Sc2nnc(-c3ccncc3)[nH]2)nc1)N1CCOCC1	6
Cn1cccc1C1COCCN1CCOCC1CC1 (stereo not shown)	6
Cc1cnn(CC2CN(C(C)C(=O)Nc3cc(C)no3)CCO2)c1 (stereo not shown)	7
CCC(CC)C(CNC(=O)c1cc(C)nc2onc(C)c12)N1CCOCC1 (stereo not shown)	7
O=S(=O)(c1cccc(-c2nnc(SCc3ccccc3)o2)c1)N1CCOCC1	43
Cc1cc(C)n(CC2CN(c3ncnc4ccsc34)CCO2)n1 (stereo not shown)	44
CCc1nsc(N2CCOC(C)C2)n1 (stereo not shown)	44
CC1(C)COCCN1C(=O)c1cnc(-c2cccs2)s1	45
Cc1cnc(CN2CCOC(c3ccc(C(F)(F)F)cc3)C2)o1 (stereo not shown)	46
CC1CCCN(C(C)CNS(=O)(=O)N2CCOCC2)C1 (stereo not shown)	46
Cc1cnc(CN2CCOCC23CCCC3)o1	46
CC1CN(C(=O)c2csc(-c3ccsc3)n2)C(C)CO1 (stereo not shown)	46

Structure (SMILES)	GUS (SPX1) stained area normalized to the number of seeds (pixels)
CC1COCCN1Cn1nc(Br)nc1Br (stereo not shown)	47
CCC1CN(Cc2cc(=O)n3cc(Cl)ccc3n2)CCO1 (stereo not shown)	47
CCCc1csc(NC(=O)N2CCOC3(CCC3)C2)n1	49
c1ccc2sc(CN3CCOC(c4nccs4)C3)nc2c1 (stereo not shown)	49
Cc1nnc(CN2CCOCC2c2cccn2C)o1 (stereo not shown)	50
CC1CN(C(=O)C2(c3ccc(F)cc3)CC2)CC1N1CCOCC1 (stereo not shown)	53
COc1cccc(C(c2c(-c3ccccc3)n(O)c3ccccc23)N2CCOCC2)c1 (stereo not shown)	54
CC1CN(c2ccc([N+](=O)[O-])nc2)CC(c2ccsc2)O1 (stereo not shown)	55
CC1CN(S(=O)(=O)N(CC2CCOC2)C2CC2)CC(C)O1 (stereo not shown)	60
CCC1CN(C(=O)C(C)OCC2CC2)CC1N1CCOCC1 (stereo not shown)	62
CN1CCOC(C(=O)N2CCN(CC3CC3)c3ccccc32)C1 (stereo not shown)	64
CC(CNC(=O)N1CCCCC1c1cccn1C)CN1CCOCC1 (stereo not shown)	65
C#CCNC(=O)CN1CCOC(CC)C1 (stereo not shown)	66
CCCCS(=O)(=O)N1CCOCC1c1noc(C(C)C)n1 (stereo not shown)	73
CC(NC(=O)N1CCOC(CO)C1)c1ccc(Br)cc1 (stereo not shown)	129
CCc1ccc(C(C)NCC2(N3CCOCC3)CCSC2)o1 (stereo not shown)	151
O=C(C1CSCN1C(=O)CC1=CCCCC1)N1CCOCC1 (stereo not shown)	162
CCN1CCOC(CNCc2ccc(-n3cncn3)cc2)C1 (stereo not shown)	301
CN(C)c1nc(CN2CCOCC2CC(=O)c2ccco2)ns1 (stereo not shown)	330
NC(=O)C1CN(C(=O)C2(c3cccc(C(F)(F)F)c3)CC2)CCO1 (stereo not shown)	349
CCc1ncncc1C(=O)NCCN1CC(C)OC(C)C1 (stereo not shown)	362
CC1CN(C(C)c2nc(C3CC3)no2)CCO1 (stereo not shown)	441
CC(c1nnc(-c2cccs2)o1)N1CCOC(c2nccs2)C1 (stereo not shown)	453
Clc1cnccc1N1CCC(OCCN2CCOCC2)CC1	491
